Data reported in patent US20150274657A1, “PYRROLIDINES” (MERCK PATENT GMBH, priority 2012, published 2015).
Where two headings read alike, the source gives them in different places.

Key:
[1] = molecular target: T1, human Nav1.6 ion channels (Homo sapiens, UniProt Q9UQD0); test: IonWorks electrophysiological assay on CHO cells expressing human Nav1.6; assay type: cell-based; details: CHO human Nav1.6 expressing cells
T1 construct: host or cells: CHO
Method: IonWorks electrophysiological assays were conducted to profile compounds for activity on CHO human Nav1.6 ion channels expressing cells (Milipore) using a unique protocol to assess the close (tonic, Pulse 1) and inactivated state inhibition (Pulse 2). The membrane potential is initially held at a hyperpolarized potential (−120 mV) to drive sodium channels into the resting closed state. The membrane is then reset to 0 mV voltage (for 2.5 seconds) following a brief 5 ms hyperpolarization to partially remove inactivation of non-blocked sodium channels; a short 20 ms test voltage step is applied to assess the magnitude of inhibition.

[2] = secondary progressive MS patients; over 2 years; p=0.02; cited from earlier work
[3] = closed (tonic) state inhibition (Pulse 1), read-out: Nav1.6 Tonic
[4] = inactivated state inhibition (Pulse 2), read-out: Nav1.6 Inactivated

T1 sequence (Q9UQD0 whole entry): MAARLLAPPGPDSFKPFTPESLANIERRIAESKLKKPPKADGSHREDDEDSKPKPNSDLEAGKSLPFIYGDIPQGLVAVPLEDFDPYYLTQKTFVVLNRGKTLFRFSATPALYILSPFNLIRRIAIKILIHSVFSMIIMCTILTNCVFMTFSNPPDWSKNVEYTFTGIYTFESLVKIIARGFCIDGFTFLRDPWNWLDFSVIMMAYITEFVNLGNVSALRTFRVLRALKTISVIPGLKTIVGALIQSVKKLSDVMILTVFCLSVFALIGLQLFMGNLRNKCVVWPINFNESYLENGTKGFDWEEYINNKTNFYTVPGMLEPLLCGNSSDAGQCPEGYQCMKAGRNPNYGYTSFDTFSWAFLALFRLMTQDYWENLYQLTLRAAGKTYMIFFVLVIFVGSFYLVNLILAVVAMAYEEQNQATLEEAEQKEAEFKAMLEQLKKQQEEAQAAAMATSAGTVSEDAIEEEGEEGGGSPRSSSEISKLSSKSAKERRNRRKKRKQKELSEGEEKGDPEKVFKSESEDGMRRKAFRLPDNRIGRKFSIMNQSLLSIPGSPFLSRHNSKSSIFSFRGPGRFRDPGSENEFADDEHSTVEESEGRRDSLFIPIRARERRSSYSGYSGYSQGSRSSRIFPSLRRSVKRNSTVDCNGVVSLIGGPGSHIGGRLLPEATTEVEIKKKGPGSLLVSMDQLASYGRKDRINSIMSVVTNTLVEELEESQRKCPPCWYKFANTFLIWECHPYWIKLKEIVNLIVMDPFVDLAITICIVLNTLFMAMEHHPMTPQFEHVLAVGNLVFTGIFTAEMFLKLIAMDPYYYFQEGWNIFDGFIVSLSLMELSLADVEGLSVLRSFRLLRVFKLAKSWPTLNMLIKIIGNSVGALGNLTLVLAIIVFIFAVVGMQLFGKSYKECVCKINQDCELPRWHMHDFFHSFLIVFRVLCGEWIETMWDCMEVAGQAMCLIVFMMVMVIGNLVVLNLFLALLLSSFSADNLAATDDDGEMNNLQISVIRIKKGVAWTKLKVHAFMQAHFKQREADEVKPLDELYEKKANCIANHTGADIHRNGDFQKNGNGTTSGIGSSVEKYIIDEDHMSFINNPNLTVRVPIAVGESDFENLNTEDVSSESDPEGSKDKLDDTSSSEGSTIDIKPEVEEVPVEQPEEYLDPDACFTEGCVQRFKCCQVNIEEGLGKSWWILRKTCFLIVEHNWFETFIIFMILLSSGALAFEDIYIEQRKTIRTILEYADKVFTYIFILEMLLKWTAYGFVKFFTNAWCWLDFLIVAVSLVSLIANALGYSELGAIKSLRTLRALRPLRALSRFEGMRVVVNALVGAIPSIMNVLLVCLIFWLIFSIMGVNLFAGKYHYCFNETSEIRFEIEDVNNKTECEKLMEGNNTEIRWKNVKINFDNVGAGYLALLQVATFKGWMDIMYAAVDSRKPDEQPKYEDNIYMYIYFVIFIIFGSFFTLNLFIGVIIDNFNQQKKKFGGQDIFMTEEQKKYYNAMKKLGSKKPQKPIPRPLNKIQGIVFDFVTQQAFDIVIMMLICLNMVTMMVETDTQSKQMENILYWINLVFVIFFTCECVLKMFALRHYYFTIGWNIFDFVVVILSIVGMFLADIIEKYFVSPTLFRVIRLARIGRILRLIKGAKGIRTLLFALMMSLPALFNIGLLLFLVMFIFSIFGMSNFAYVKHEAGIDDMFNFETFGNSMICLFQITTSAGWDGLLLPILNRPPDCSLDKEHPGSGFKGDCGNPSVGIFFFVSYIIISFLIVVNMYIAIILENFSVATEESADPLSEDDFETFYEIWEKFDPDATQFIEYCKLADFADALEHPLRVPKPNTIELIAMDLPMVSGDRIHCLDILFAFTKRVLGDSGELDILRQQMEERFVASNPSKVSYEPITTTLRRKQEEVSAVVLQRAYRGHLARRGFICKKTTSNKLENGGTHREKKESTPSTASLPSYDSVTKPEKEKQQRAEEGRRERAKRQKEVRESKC

IC50 [1, 3] [µM] | IC50 [1, 4] [µM] | Compound | deterioration of the timed 25-foot walk [2]
14.1 | 0.615 | Cc1ccccc1CNC(=O)C1(C)CCN(Cc2cccc(Oc3ccccc3)c2)C1 (racemic) [Example 9, (±) 3-methyl-1-(3-phenoxy-benzyl)-pyrrolidine-3-carboxylic acid 2-methyl-benzylamide] | 
> 33 | 0.228 | CC1(C(=O)NCc2ccccn2)CCN(Cc2cccc(Oc3ccccc3)c2)C1 (racemic) [Example 12, (±) 3-methyl-1-(3-phenoxy-benzyl)-pyrrolidine-3-carboxylic acid (pyridin-2-ylmethyl)-amide] | 
> 33 | 1.97 | CC1(C(=O)N2CCc3cccc(C(F)(F)F)c3C2)CCN(Cc2cccc(Oc3ccccc3)c2)C1 (racemic) [Example 13, (±) [3-methyl-1-(3-phenoxy-benzyl)-pyrrolidin-3-yl]-(8-trifluoromethyl-3,4-dihydro-1H-isoquinolin-2-yl)-methanone] | 
30.3 | 0.473 | CN(Cc1ccccn1)C(=O)C1(C)CCN(Cc2cccc(Oc3ccccc3)c2)C1 (racemic) [Example 14, (±) 3-methyl-1-(3-phenoxy-benzyl)-pyrrolidine-3-carboxylic acid methyl-pyridin-2-ylmethyl-amide] | 
15.5 | 0.733 | CC1(C(=O)N2CCOCC2)CCN(Cc2cccc(Oc3ccccc3)c2)C1 (racemic) [Example 15, (±) [3-methyl-1-(3-phenoxy-benzyl)-pyrrolidin-3-yl]-morpholin-4-yl-methanone] | 
13.1 | 0.409 | CC1(C(=O)NCc2cccnc2)CCN(Cc2cccc(Oc3ccccc3)c2)C1 (racemic) [Example 16, (±) 3-methyl-1-(3-phenoxy-benzyl)-pyrrolidine-3-carboxylic acid (pyridin-3-ylmethyl)-amide] | 
16.4 | 0.94 | CC1(C(=O)NCc2ccncc2)CCN(Cc2cccc(Oc3ccccc3)c2)C1 (racemic) [Example 17, (±) 3-methyl-1-(3-phenoxy-benzyl)-pyrrolidine-3-carboxylic acid (pyridin-4-ylmethyl)-amide] | 
23.1 | 0.621 | CCNC(=O)C1CCN(Cc2cccc(Oc3ccccc3)c2)C1 (racemic) [Example 18, (±) 1-(3-phenoxy-benzyl)-pyrrolidine-3-carboxylic acid ethylamide] | 
30.3 | 1.18 | COCCNC(=O)C1CCN(Cc2cccc(Oc3ccccc3)c2)C1 (racemic) [Example 19, (±) 1-(3-phenoxy-benzyl)-pyrrolidine-3-carboxylic acid (2-methoxy-ethyl)-amide] | 
8.94 | 1.91 | CN1CCN(C(=O)C2(C)CCN(Cc3cccc(Oc4ccccc4)c3)C2)CC1 (racemic) [Example 20, (±) [3-methyl-1-(3-phenoxy-benzyl)-pyrrolidin-3-yl]-(4-methyl-piperazin-1-yl)-methanone] | 
> 33 | 1.08 | CC1(C(=O)NCc2ccccn2)CCN(Cc2csc(-c3ccccc3)n2)C1 (racemic) [Example 21, (±) 3-methyl-1-(2-phenyl-thiazol-4-ylmethyl)-pyrrolidine-3-carboxylic acid (pyridin-2-ylmethyl)-amide] | 
10.6 | 0.771 | CC1(C(=O)NCCc2ccccn2)CCN(Cc2cccc(Oc3ccccc3)c2)C1 (racemic) [Example 26, (±) 3-methyl-1-(3-phenoxy-benzyl)-pyrrolidine-3-carboxylic acid (2-pyridin-2-v1-ethyl)-amide] | 
> 33 | 1.44 | CC1CN(C(=O)C2CCN(Cc3cccc(Oc4ccccc4)c3)C2)CCO1 (racemic) [Example 27, (±) (2-methyl-morpholin-4-yl)-[1-(3-phenoxy-benzyl)-pyrrolidin-3-yl]-methanone] | 
19.6 | 1.17 | O=C(NCCc1ccccn1)C1CCN(Cc2cccc(Oc3ccccc3)c2)C1 (racemic) [Example 28, (±) 1-(3-phenoxy-benzyl)-pyrrolidine-3-carboxylic acid (2-pyridin-2-yl-ethyl)-amide] | 
> 33 | 1.89 | COC1CCCN(C(=O)C2CCN(Cc3cccc(Oc4ccccc4)c3)C2)C1 (racemic) [Example 29, (±) (3-methoxy-piperidin-1-yl)-[1-(3-phenoxy-benzyl)-pyrrolidin-3-yl]-methanone] | 
> 33 | 1.09 | COC1CCN(C(=O)C2CCN(Cc3cccc(Oc4ccccc4)c3)C2)CC1 (racemic) [Example 30, (±) (4-methoxy-piperidin-1-yl)-[1-(3-phenoxy-benzyl)-pyrrolidin-3-yl]-methanone] | 

IC50 [1, 3] [µM] | IC50 [1, 4] [µM] | Compound | deterioration of the timed 25-foot walk [2]
> 33 | 1.74 | CC1(C(=O)N2Cc3cccnc3C2)CCN(Cc2cccc(Oc3ccccc3)c2)C1 (racemic) [Example 31, (±) (5,7-dihydro-pyrrolo[3,4-b]pyridin-6-yl)-[3-methyl-1-(3-phenoxy-benzyl)-pyrrolidin-3-yl]-methanone] | 
> 33 | 1.67 | CC1(C(=O)N2CCc3cccnc3C2)CCN(Cc2cccc(Oc3ccccc3)c2)C1 (racemic) [Example 32, (±) (5,8-dihydro-6H-[1,7]naphthyridin-7-yl)-[3-methyl-1-(3-phenoxy-benzyl)-pyrrolidin-3-yl]-methanone] | 
> 33 | 1.52 | COC1CCN(C(=O)C2CCN(Cc3cccc(Oc4ccccc4)c3)C2)C1 (racemic) [Example 33, (±) (3-methoxy-pyrrolidin-1-yl)-[1-(3-phenoxy-benzyl)-Pyrrolidin-3-yl]-methanone] | 
16.2 | 0.353 | O=C(NCc1ccccn1)C1CCN(Cc2cccc(Oc3ccccc3)c2)C1 (racemic) [Example 34, (±) 1-(3-phenoxy-benzyl)-pyrrolidine-3-carboxylic acid (Pyridin-2-ylmethyl)-amide] | 
20 | 0.808 | CCNC(=O)[C@@]1(C)CCN(Cc2cccc(Oc3ccccc3)c2)C1 (single isomer, unassigned) [Example 10] | 
15.7 | 0.825 | CCNC(=O)[C@]1(C)CCN(Cc2cccc(Oc3ccccc3)c2)C1 (single isomer, unassigned) [Example 11] | 
21.4 | 1.77 | CCNC(=O)C1(C)CCN(Cc2ccc(-c3ccccc3)cc2)C1 (stereo not shown) [Example 1] | 
15.5 | 0.993 | COCCNC(=O)C1(C)CCN(Cc2cccc(Oc3ccccc3)c2)C1 (stereo not shown) [Example 2] | 
9.42 | 1.03 | CCCNC(=O)C1(C)CCN(Cc2cccc(Oc3ccccc3)c2)C1 (stereo not shown) [Example 4] | 
30.7 | 0.785 | CCCNC(=O)C1(C)CCN(Cc2ccc(-c3ccccc3)o2)C1 (stereo not shown) [Example 5] | 
23.4 | 1.86 | CCCNC(=O)C1(C)CCN(Cc2ccc(OC)c3ccccc23)C1 (stereo not shown) [Example 6] | 
> 33 | 1.61 | CCCNC(=O)C1(C)CCN(Cc2cccc(OC(=O)c3ccccc3)c2)C1 (stereo not shown) [Example 7] | 
14.8 | 1.03 | CCCNC(=O)C1(C)CCN(Cc2csc(-c3ccc(Cl)cc3)n2)C1 (stereo not shown) [Example 8] | 
29.9 | 1.3 | O=C(NCc1cccnc1)[C@@H]1CCN(Cc2cccc(Oc3ccccc3)c2)C1 [Example 24, (R)-1(3-phenoxy-benzyl)-pyrrolidine-3-carboxylic acid (pyridin-3-ylmethyl)-amide] | 
 |  | Nc1nnc(-c2cccc(Cl)c2Cl)c(N)n1 [Lamotrigine] | reduced the deterioration of the timed 25-foot walk

Compound | IC50 [1, 3] [µM] | IC50 [1, 4] [µM] | deterioration of the timed 25-foot walk [2]
COC(=O)C1(C)CCN(Cc2cccc(OCC(C)C)c2)C1 (racemic) [Example 22, (±) 1-(3-isobutoxy-benzyl)-3-methyl-pyrrolidine-3-carboxylic acid methyl ester] | > 33 | 0.994 | 
CC(C)COc1cccc(CN2CCC(C)(C(=O)NCc3ccccn3)C2)c1 (racemic) [Example 23, (±) 1-(3-isobutoxy-benzyl)-3-methyl-pyrrolidine-3-carboxylic acid (pyridin-2-ylmethyl)-amide] | > 33 | 0.445 | 
CC(C)COc1cccc(CN2CCC(C)(C(=O)N(C)Cc3ccccn3)C2)c1 (racemic) [Example 25, (±) 1-(3-isobutoxy-benzyl)-3-methyl-pyrrolidine-3-carboxylic acid methyl-pyridin-2-ylmethyl-amide] | 19.9 | 0.752 | 
